Measurements as given in article PMC11871066, “Structure-based discovery of hydrocarbon-stapled paxillin peptides that block FAK scaffolding in cancer” (Nature Communications, 2025).
Bridge positions count the residues as written; N and C are the ends. Square brackets hold non-standard residues; d marks the D form. Peptide text beside a SMILES is read from it. * marks the point of attachment. Myristoyl = CCCCCCCCCCCCCC(=O)*; R8 = C=CCCCCCC[C@@](C)(N)C(=O)O; S5 = C=CCCC[C@](C)(N)C(=O)O

What was measured:
[1] = In vivo pharmacokinetics, single i.p. administration; details: Cmax vs IC50 0.8 µM
Procedure: (§4) Cell permeability of peptide drugs was determined by fluorescence measurement of TAMRA-labeled peptides in 96-well plates and ClarioStar Plus plate reader using BMG ClarioStar MARS software (version 4.20). […] Percent uptake was calculated as background-subtracted fluorescence absorbed by cells/fluorescence of peptide in media-only wells, then made relative to TAMRA-Alkyne. Three biological replicates (n = 3) were performed per cell line per treatment group. Peptide proteolysis was measured using immobilized Trypsin-agarose resin (Thermo Fisher) and quantification by LC-MS. […] In vivo pharmacokinetics were performed by the UACC Analytical Chemistry Shared Resource. […] The mice were fed NIH-31 irradiated pellets (Tekland Premier, Madison, Wisconsin), and reverse osmosis water was freely available. […] The average plasma concentration versus time data were analyzed using PKSolver (version 2.0) by a noncompartmental approach.

[2] = mouse
[3] = system: trypsin; assay: in vitro; details: isolated enzyme trypsin
Procedure: as §4

[4] = in vivo; details: female, Balb/cJ, mouse, ip
Procedure: as §4

[5] = mouse, in vivo, ip
Procedure: as §4

[6] = Liver microsomal stability; details: human liver microsomes
[7] = molecular target: 97 kinases (kinase named in endpoint) (Homo sapiens, UniProt Q9Y6R4); assay: Eurofins KINOMEscan profiling, 97 kinases; details: read-out: % Ctrl, MAP3K4
Procedure: (§5) This experiment was performed by Eurofins KINOMEscan™ Profiling Service. […] The lysates were centrifuged and filtered, the remaining kinases were produced in HEK-293 cells and subsequently tagged with DNA for qPCR detection. […] The liganded beads were blocked with excess biotin and washed with blocking buffer (SeaBlock (Pierce), 1% BSA, 0.05% Tween-20, 1 mM DTT). […] Test compounds were prepared as 100x stocks in 100% DMSO and directly diluted into the assay. All reactions were performed in polypropylene 384-well plates in a final volume of 0.02 ml. […] The kinase concentration in the eluates was measured by qPCR.
(§6) (negative control signal - positive control signal)] x 100. ( b) AccompanyingSelectivity Scores or S -scores
(§7) which are quantitative measures of compound selectivity. They are calculated by dividing the number of
(§8) kinases that compounds bind to by the total number of distinct kinases tested, excluding mutant variants.
(§9) S(35)= ( num ber of non -mutant kinases with %Ctrl <35)/(number of non- mutant kinases tested)], S(10)=
(§10) non- mutant kinases with %Ctrl <1)/(number of non- mutant kinases tested)].

[8] = molecular target: 97 kinases (kinase named in endpoint) (Homo sapiens, UniProt O15075); assay: Eurofins KINOMEscan profiling, 97 kinases; details: read-out: % Ctrl, DCAMKL1
Procedure: as §5, §6, §7, §8, §9, §10

[9] = molecular target: 97 kinases (kinase named in endpoint) (Homo sapiens, UniProt Q15831); assay: Eurofins KINOMEscan profiling, 97 kinases; details: read-out: % Ctrl, LKB1
Procedure: as §5, §6, §7, §8, §9, §10

[10] = molecular target: 97 kinases (kinase named in endpoint) (Homo sapiens, UniProt P36888); assay: Eurofins KINOMEscan profiling, 97 kinases; details: read-out: % Ctrl, FLT3
97 kinases (kinase named in endpoint) (Homo sapiens, UniProt P36888), sequence (P36888 27-993): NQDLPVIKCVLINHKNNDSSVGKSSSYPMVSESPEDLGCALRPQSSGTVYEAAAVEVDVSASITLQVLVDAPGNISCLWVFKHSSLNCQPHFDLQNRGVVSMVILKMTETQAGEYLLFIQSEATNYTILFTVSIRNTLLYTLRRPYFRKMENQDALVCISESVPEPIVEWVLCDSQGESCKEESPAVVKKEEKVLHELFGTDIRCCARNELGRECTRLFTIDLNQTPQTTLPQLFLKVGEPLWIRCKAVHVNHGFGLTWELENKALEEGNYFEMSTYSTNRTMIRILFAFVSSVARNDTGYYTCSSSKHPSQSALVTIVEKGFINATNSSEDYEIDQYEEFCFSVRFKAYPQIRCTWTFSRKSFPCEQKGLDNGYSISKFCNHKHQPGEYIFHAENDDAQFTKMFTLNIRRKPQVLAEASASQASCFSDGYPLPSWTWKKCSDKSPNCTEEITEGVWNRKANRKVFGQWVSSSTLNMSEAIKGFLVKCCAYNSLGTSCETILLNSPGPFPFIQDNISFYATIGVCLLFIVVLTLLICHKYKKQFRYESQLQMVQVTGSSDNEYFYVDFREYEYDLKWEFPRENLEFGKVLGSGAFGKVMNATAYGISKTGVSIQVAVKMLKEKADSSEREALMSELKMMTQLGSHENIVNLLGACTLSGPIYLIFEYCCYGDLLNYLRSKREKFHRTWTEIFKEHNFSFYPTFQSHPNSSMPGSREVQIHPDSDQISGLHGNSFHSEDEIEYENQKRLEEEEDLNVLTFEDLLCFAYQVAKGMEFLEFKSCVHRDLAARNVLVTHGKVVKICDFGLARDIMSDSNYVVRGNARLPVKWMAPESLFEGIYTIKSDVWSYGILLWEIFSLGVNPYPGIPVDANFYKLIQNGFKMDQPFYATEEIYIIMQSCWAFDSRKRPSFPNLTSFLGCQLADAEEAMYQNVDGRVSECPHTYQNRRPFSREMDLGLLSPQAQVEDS
Procedure: as §5, §6, §7, §8, §9, §10

[11] = molecular target: 97 kinases (kinase named in endpoint) (Homo sapiens, UniProt P10721, T670I/V559D); assay: Eurofins KINOMEscan profiling, 97 kinases; details: read-out: % Ctrl, KIT(V559D,T670I)
97 kinases (kinase named in endpoint) (Homo sapiens, UniProt P10721, T670I/V559D), sequence (P10721 26-976 V559D/T670I): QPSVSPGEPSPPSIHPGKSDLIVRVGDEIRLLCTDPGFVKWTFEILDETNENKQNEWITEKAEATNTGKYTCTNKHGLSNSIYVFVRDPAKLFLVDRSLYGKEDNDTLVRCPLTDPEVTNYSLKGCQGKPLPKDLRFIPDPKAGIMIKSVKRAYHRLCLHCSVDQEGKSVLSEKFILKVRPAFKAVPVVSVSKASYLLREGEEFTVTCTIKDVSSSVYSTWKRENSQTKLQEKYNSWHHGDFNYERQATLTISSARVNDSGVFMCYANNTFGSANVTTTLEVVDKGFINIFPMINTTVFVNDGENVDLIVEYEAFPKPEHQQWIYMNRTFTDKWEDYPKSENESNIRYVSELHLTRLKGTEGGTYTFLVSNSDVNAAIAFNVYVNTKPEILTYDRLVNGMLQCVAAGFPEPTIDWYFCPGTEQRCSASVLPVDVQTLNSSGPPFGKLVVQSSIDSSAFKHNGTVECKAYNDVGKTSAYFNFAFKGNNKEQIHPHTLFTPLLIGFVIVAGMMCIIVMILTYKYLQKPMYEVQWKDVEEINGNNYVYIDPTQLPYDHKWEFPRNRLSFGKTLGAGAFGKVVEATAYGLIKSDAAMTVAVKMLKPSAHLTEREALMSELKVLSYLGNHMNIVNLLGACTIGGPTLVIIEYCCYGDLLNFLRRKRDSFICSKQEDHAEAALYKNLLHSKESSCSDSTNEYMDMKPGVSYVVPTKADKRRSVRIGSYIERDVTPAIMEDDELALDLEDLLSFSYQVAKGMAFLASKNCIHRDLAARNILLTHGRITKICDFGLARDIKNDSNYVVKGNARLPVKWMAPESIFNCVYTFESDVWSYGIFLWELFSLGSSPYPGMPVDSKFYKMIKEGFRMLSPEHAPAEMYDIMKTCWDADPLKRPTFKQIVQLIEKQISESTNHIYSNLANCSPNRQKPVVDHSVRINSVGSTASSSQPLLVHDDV
Procedure: as §5, §6, §7, §8, §9, §10

[12] = molecular target: 97 kinases (kinase named in endpoint) (Homo sapiens, UniProt Q9H093); assay: Eurofins KINOMEscan profiling, 97 kinases; details: read-out: % Ctrl, SNARK
97 kinases (kinase named in endpoint) (Homo sapiens, UniProt Q9H093), sequence (Q9H093 whole entry): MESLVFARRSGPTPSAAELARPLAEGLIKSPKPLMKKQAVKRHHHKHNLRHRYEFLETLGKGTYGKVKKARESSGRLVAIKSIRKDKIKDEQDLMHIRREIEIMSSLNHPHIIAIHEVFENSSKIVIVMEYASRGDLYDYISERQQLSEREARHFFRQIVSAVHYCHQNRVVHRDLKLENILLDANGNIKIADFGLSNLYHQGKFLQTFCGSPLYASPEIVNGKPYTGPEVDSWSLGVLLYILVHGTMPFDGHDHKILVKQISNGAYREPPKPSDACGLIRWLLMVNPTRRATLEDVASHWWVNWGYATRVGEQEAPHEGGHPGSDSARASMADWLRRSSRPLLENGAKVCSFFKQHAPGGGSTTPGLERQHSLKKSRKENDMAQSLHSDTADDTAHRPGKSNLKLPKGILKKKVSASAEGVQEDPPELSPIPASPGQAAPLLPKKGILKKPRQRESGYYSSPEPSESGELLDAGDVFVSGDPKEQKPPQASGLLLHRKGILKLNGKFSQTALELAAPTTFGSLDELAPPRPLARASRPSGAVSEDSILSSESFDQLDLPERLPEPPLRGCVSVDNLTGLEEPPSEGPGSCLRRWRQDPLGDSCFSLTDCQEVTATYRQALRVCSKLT
Procedure: as §5, §6, §7, §8, §9, §10

[13] = molecular target: 97 kinases (kinase named in endpoint) (Homo sapiens, UniProt P22607); assay: Eurofins KINOMEscan profiling, 97 kinases; details: read-out: % Ctrl, FGFR3
Procedure: as §5, §6, §7, §8, §9, §10

[14] = molecular target: 97 kinases (kinase named in endpoint) (Homo sapiens, UniProt P50613); assay: Eurofins KINOMEscan profiling, 97 kinases; details: read-out: % Ctrl, CDK7
97 kinases (kinase named in endpoint) (Homo sapiens, UniProt P50613), sequence (P50613 whole entry): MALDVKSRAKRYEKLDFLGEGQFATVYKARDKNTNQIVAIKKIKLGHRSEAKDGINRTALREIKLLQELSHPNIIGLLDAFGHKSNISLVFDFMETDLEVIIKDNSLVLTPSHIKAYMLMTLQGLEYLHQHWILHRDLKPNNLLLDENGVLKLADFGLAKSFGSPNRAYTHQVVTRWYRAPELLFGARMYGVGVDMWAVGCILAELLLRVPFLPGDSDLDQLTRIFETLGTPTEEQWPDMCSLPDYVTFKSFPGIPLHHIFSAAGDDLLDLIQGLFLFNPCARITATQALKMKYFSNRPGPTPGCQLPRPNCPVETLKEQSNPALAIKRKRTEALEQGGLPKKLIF
Procedure: as §5, §6, §7, §8, §9, §10

[15] = molecular target: 97 kinases (kinase named in endpoint) (Homo sapiens, UniProt P42336); assay: Eurofins KINOMEscan profiling, 97 kinases; details: read-out: % Ctrl, PIK3CA
97 kinases (kinase named in endpoint) (Homo sapiens, UniProt P42336), sequence (P42336 whole entry): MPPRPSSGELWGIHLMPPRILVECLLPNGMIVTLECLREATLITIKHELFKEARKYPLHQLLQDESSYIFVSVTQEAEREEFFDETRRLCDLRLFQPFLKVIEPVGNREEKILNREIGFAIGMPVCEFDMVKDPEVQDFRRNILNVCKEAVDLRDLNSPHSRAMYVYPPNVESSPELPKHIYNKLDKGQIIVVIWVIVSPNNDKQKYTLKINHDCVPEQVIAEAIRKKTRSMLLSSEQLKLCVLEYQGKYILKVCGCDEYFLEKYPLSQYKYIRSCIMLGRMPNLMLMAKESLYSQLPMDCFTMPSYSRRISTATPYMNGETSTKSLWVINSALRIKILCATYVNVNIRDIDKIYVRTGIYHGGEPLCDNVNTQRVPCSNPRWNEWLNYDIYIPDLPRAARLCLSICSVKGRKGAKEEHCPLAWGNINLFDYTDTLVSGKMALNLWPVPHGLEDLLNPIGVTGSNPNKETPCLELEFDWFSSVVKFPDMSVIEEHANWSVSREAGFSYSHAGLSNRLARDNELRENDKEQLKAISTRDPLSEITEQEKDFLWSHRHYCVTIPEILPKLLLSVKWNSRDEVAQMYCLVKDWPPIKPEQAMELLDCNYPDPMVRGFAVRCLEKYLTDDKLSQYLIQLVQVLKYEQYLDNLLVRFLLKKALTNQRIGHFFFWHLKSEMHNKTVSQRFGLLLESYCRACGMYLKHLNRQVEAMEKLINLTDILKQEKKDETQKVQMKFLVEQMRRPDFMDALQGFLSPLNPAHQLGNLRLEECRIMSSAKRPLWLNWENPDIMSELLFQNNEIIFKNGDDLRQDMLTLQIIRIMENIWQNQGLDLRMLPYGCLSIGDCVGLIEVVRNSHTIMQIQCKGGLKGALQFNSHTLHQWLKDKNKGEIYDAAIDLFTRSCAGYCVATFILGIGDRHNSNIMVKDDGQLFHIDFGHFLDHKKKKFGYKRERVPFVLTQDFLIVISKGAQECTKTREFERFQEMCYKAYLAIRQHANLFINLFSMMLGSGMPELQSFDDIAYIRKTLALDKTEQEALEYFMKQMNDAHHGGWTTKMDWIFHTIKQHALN
Procedure: as §5, §6, §7, §8, §9, §10

[16] = molecular target: 97 kinases (kinase named in endpoint) (Homo sapiens, UniProt O00444); assay: Eurofins KINOMEscan profiling, 97 kinases; details: read-out: % Ctrl, PLK4
97 kinases (kinase named in endpoint) (Homo sapiens, UniProt O00444), sequence (O00444 whole entry): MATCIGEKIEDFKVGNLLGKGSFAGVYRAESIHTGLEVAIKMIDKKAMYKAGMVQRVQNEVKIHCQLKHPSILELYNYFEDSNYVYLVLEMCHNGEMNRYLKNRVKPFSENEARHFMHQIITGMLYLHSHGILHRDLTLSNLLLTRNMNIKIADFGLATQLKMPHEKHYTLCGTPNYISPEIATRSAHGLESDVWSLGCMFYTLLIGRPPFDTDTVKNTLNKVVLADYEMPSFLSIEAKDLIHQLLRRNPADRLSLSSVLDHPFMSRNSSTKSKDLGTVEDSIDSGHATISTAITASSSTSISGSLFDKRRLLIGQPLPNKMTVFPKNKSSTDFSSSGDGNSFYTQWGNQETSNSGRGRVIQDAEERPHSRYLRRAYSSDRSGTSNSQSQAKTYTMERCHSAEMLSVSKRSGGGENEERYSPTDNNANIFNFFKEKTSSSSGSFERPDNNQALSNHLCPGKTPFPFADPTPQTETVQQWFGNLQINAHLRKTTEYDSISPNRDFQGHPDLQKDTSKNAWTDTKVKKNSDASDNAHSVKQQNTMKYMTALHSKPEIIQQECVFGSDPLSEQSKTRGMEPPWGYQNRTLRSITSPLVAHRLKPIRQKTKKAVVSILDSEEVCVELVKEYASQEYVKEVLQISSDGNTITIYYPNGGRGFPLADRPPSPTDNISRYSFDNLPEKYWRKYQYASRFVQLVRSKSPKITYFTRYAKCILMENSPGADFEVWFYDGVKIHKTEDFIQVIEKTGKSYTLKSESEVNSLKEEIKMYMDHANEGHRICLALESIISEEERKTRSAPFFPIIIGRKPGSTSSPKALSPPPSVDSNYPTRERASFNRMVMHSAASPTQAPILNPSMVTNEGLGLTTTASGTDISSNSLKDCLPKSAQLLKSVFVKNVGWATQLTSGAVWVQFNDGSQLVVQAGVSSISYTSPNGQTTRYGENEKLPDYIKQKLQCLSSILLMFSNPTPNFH
Procedure: as §5, §6, §7, §8, §9, §10

[17] = in vitro; details: plasma
[18] = system: kinases; details: 1 µM, ref Cromm et al, 2018; cited from earlier work
Procedure: page 11: Comment 5: Reviewer Comment: “Line 299: “indicating potential [defactinib] toxicity beyond the 2.5 μM”. […] The high non- selectivity of defactinib at low micromolar doses indicates the potential of off-target effects and toxicity beyond 2.5 µM.

[19] = system: WM88 cells; assay: LDH release assay; format: cell-based, human; details: 100 μM to 200 nM, 45 min, n = 3
Procedure: (§1) Non-specific membrane disruption was assessed quantitatively by measuring the lactate dehydrogenase (LDH) activity in the medium using the cytoscan-LDH cytotoxicity assay kit (G-Biosciences Inc., St Louis, Mo, USA). SK-MEL-147 and WM88 human melanoma cells were plated in 96-well white-walled plates at 5k cells/well in 90 uL of serum complete DMEM and returned to a 37 °C incubator with 5% CO2 overnight. The cells were then treated in triplicate with 2012, 2020 (negative control), and Gambogic Acid (positive control) at titrating concentrations ranging from 100 μM to 200 nM and allowed to incubate for 45 min in a 37 °C incubator with 5% CO2. About 50 µl of supernatant was transferred from each well to a new flat-bottom 96-well white-walled plate and mixed with 50 µl of recombinant substrate mixture. This reaction was allowed to occur at room temperature for 30 min protected from light. Then, 50 µl of stop solution was added to terminate the reaction. […] Results were reported as 490 nm values […], averaged, three biological replicates were repeated per cell line, and graphs were generated using GraphPad Prism (version 10.3.1), reporting mean LDH activity ± SD.
(§2) LDH release assay preformed in human melanoma
(§3) Acid (pos. control) at titrating concentrations ranging from 100 μ M to 200 nM for 45 minutes. […]

[20] = system: SK-MEL-147 cells; assay: LDH release assay; format: cell-based, human; details: 100 μM to 200 nM, 45 min, n = 3
Procedure: as §1, §2, §3

[21] = system: trypsin; assay: Trypsin proteolytic resistance assay; details: immobilized trypsin-agarose resin
Procedure: as §4

SMILES: CCCCCCCCCCCCCC(=O)N[C@@H](CC(N)=O)C(=O)N[C@@H](CC(C)C)C(=O)N[C@]1(C)CCCCCCC=CCCC[C@@](C)(C(=O)N[C@@H](CCC(=O)O)C(=O)N[C@@H](CC(C)C)C(=O)N[C@@H](CC(N)=O)C(N)=O)NC(=O)[C@H](CC(C)C)NC(=O)[C@H](CC(C)C)NC(=O)[C@H](CCCNC(=N)N)NC(=O)[C@H](CC(=O)O)NC(=O)[C@H](CC(C)C)NC(=O)[C@H](CCC(=O)O)NC1=O [compound 2012]
- excess of plasma concentration over focal adhesion IC50 [1]: 60 fold
- plasma stability t1/2 [2]: > 2 h
- remaining at 0.25 h, 100 µM [3]: 91%
- remaining at 0.5 h, 100 µM [3]: 108%
- remaining at 1 h, 100 µM [3]: 102%
- remaining at 2 h, 100 µM [3]: 85%
- remaining at 3 h, 100 µM [3]: 104%
- remaining at 4 h, 100 µM [3]: 91%
- remaining at 6 h, 100 µM [3]: 93%
- remaining at 8 h, 100 µM [3]: 111%
- remaining at 24 h, 100 µM [3]: 97%
- remaining at 48 h, 100 µM [3]: 89%
- Cmax [4]: 89.4 µg/mL
- half-life [4]: 16.5 h
- level at 0.5 h ([4]; 2012 concentration): 11.4 µg/mL
- Cmax, molar concentration [5]: 48.5 µM
- plasma clearance [5]: 0.26 mL/min/kg
- remaining in liver microsomes ([6]; 0 min, Rep1): 98
- remaining in liver microsomes ([6]; 0 min, Rep2): 102
- remaining in liver microsomes ([6]; 5 min, Rep1): 98
- remaining in liver microsomes ([6]; 5 min, Rep2): 94
- remaining in liver microsomes ([6]; 15 min, Rep1): 100
- remaining in liver microsomes ([6]; 15 min, Rep2): 98
- remaining in liver microsomes ([6]; 30 min, Rep1): 100
- remaining in liver microsomes ([6]; 30 min, Rep2): 101
- remaining in liver microsomes ([6]; 60 min, Rep1): 97
- remaining in liver microsomes ([6]; 60 min, Rep2): 94
- remaining binding at 1 µM [7]: 90%
- remaining binding at 1 µM [8]: 86%
- remaining binding at 1 µM [9]: 85%
- remaining binding at 1 µM [10]: 93%
- remaining binding at 1 µM [11]: 93%
- remaining binding at 1 µM [12]: 100%
- remaining binding at 1 µM [13]: 95%
- remaining binding at 1 µM [14]: 69%
- remaining binding at 1 µM [15]: 100%
- remaining binding at 1 µM [16]: 97%
- fraction unbound [17]: < 0.01

SMILES: CNC(=O)c1ccc(Nc2ncc(C(F)(F)F)c(NCc3nccnc3N(C)S(C)(=O)=O)n2)cc1 [defactinib]
- number of kinases bound with more than 65% inhibition [18]: ≥ 100
- remaining binding at 1 µM [7]: 69%
- remaining binding at 1 µM [8]: 47%
- remaining binding at 1 µM [9]: 90%
- remaining binding at 1 µM [10]: 1.1%
- remaining binding at 1 µM [11]: 37%
- remaining binding at 1 µM [12]: 13%
- remaining binding at 1 µM [13]: 45%
- remaining binding at 1 µM [14]: 22%
- remaining binding at 1 µM [15]: 100%
- remaining binding at 1 µM [16]: 39%

SMILES: CCCCCCCCCCCCCC(=O)N[C@@H](CC(N)=O)C(=O)N[C@@H](CC(C)C)C(=O)N[C@]1(C)CCCCCCC=CCCC[C@@](C)(C(=O)N[C@@H](CCC(=O)O)C(=O)N[C@@H](CCC(=O)O)C(=O)N[C@@H](CC(N)=O)C(N)=O)NC(=O)[C@H](CC(C)C)NC(=O)[C@H](CC(C)C)NC(=O)[C@H](CCCNC(=N)N)NC(=O)[C@H](CC(=O)O)NC(=O)[C@H](CCC(=O)O)NC(=O)[C@H](CCC(=O)O)NC1=O [compound 2020] (Myristoyl-NL[R8]EEDRLL[S5]EEN-NH2; staple 3-10)
- LDH release, plasma membrane damage [19]: do not result in damage to plasma membrane
- LDH release, plasma membrane damage [20]: do not result in damage to plasma membrane
- remaining at 0.25 h, 100 µM [21]: 97%
- remaining at 0.5 h, 100 µM [21]: 99%
- remaining at 1 h, 100 µM [21]: 98%
- remaining at 2 h, 100 µM [21]: 95%
- remaining at 3 h, 100 µM [21]: 90%
- remaining at 4 h, 100 µM [21]: 92%
- remaining at 6 h, 100 µM [21]: 93%
- remaining at 8 h, 100 µM [21]: 93%
- remaining at 24 h, 100 µM [21]: 91%
- remaining at 48 h, 100 µM [21]: 89%
